Our source for the IC50, Ki and inhibition values is ChEMBL document CHEMBL1130746, “Naphthalenebis[alpha,alpha-difluoromethylenephosphonates] as potent inhibitors of protein tyrosine phosphatases” (Bioorg Med Chem Lett, 1998).

The target of test [1] is T1, Receptor-type tyrosine-protein phosphatase C (Homo sapiens, UniProt P08575).
T1 sequence (P08575 whole entry): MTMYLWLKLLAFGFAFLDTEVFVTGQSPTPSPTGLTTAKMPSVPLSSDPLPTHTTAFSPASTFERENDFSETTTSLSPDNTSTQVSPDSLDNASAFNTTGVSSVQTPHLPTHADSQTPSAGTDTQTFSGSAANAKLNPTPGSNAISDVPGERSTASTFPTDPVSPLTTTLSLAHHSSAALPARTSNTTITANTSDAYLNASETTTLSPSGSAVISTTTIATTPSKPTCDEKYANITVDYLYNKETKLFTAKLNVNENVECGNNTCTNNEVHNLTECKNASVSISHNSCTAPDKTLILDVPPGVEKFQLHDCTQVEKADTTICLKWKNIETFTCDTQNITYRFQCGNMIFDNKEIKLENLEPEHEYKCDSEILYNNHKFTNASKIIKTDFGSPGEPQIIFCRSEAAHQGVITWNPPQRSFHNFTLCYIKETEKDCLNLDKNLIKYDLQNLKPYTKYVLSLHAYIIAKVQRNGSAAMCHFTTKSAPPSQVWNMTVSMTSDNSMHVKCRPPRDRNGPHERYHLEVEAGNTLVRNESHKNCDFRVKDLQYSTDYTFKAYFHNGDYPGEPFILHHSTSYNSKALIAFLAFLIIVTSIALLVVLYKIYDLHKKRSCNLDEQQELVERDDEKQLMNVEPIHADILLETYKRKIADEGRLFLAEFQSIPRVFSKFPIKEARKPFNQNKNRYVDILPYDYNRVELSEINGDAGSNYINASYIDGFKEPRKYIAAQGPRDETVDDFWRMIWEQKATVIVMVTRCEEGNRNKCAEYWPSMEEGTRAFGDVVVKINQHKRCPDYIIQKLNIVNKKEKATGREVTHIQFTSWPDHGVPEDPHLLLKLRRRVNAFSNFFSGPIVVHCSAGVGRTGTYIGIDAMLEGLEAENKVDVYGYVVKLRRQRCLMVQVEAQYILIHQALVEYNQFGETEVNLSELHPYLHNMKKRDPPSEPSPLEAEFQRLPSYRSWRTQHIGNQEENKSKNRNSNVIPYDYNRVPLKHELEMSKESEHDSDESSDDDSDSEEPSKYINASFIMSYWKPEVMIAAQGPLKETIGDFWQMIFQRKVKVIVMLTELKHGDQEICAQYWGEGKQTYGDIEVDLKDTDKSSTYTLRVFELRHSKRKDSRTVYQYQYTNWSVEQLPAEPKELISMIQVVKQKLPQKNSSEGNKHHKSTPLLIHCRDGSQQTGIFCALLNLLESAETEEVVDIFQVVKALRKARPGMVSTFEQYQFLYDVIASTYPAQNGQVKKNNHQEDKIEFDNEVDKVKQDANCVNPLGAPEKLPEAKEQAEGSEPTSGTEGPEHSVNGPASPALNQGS
The test is described as follows: Compound was evaluated for 50% inhibition of CD45 protein-tyrosine phosphatase using uM).

For test [2], the target named is T2, Tyrosine-protein phosphatase non-receptor type 1 (Homo sapiens, UniProt P18031).
T2 sequence (P18031 whole entry): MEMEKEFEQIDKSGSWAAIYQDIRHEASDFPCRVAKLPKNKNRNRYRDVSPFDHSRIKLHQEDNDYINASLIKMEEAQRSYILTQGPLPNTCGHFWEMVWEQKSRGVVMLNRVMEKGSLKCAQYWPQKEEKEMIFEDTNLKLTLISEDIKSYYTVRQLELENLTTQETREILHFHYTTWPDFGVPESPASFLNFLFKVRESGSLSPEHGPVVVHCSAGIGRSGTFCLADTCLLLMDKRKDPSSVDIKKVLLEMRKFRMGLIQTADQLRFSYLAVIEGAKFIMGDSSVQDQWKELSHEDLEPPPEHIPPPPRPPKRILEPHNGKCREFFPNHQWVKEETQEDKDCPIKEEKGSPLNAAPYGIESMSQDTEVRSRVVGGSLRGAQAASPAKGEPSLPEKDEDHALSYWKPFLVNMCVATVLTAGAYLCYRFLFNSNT
As to the kind of experiment: Compound was evaluated for 50% inhibition of PTP1B using uM).

Test [3] deals with T2, Tyrosine-protein phosphatase non-receptor type 1. As to the kind of experiment: Compound was evaluated for inhibitory constant against PTP1B.
In test [4] the target is T3, Receptor-type tyrosine-protein phosphatase C (Homo sapiens) (UniProt P08575).
T3 sequence (whole entry): T1 sequence (P08575 whole entry)
As to the kind of experiment: Compound was evaluated for inhibition of CD45 protein-tyrosine phosphatase at a concentration of 500 uM).

For test [5], the target named is T4, Tyrosine-protein phosphatase non-receptor type 1 (Homo sapiens) (UniProt P18031).
T4 sequence (whole entry): T2 sequence (P18031 whole entry)
The test is described as follows: Compound was evaluated for inhibition of PTP1B at a concentration of 500 uM).

Test [6] in a line: Compound was evaluated for inhibition of PP2A at a concentration of 500 uM).
For test [7], the target named is T1, Receptor-type tyrosine-protein phosphatase C. As to the kind of experiment: Compound was evaluated for inhibitory constant against CD45.
For test [8] the target is unchanged. As to the kind of experiment: Compound was evaluated for 50% inhibition of CD45 using uM).
Test [9] in a line: Compound was evaluated for 50% inhibition of PP2A, a serine/threonine phosphatase using uM).
The target of test [10] is T3, Receptor-type tyrosine-protein phosphatase C (Homo sapiens). The test is described as follows: Compound was evaluated for inhibition of CD45 at a concentration of 500 uM).

Take `O=P(O)(O)Cc1ccc2ccc(CP(=O)(O)O)cc2c1`: the IC50 is 500 µM in test [1] and over 500 µM in test [2].
For the compound `O=P(O)(O)C(F)(F)c1cc(O)c2ccccc2c1`, the inhibitory constant (Ki) in [3] was found to be 93 µM.
As for `O=P(O)(O)C(F)(F)c1ccc2c(C(F)(F)P(=O)(O)O)cccc2c1`, the inhibition in test [4] was determined as 70%; in test [5], 89%; in test [6], 75%.
On to `O=P(O)(O)C(F)c1ccc2ccc(C(F)P(=O)(O)O)cc2c1` (configuration not stated), for which the figures for the IC50 in test [1] and in test [2] were 279 µM and 130 µM, respectively.
As to `O=P(O)(O)C(F)(F)c1ccc2cccc(C(F)(F)P(=O)(O)O)c2c1`, the values for the inhibition in test [4], in [5] and in [6] were 99%, 98% and 61%, respectively. In [7], this compound showed a Ki of 9 µM. The half-inhibitory concentration (IC50) in test [8] came to 27 µM; in [2], 118 µM; in test [9] it was 481 µM.
As to `O=P(O)(O)C(F)(F)c1ccc2ccc(C(F)(F)P(=O)(O)O)cc2c1`, the inhibition in [10] amounted to 64%; in test [5], 100%; in [6], 70%. For the same compound, the IC50 in test [8] was 180 µM; in test [9], 306 µM. Also, in test [3], affinity was put at a Ki of 16 µM.
Take `O=P(O)(O)C(F)(F)c1ccc2ccccc2c1`: the values for the inhibition in test [10], in [5] and in [6] were 5%, 84% and 39%, respectively. Also, the concentration for half-maximal inhibition (IC50) was over 1000 µM in [8], 95 µM in [2] and 753 µM in [9]. In [3], this compound had a Ki of 197 µM.
Regarding `O=P(O)(O)C(F)(F)c1cccc2ccccc12`, the inhibition in [10] amounted to 20%; in test [5], 83%; in test [6], 52%. Besides, the IC50 in test [8] is over 1000 µM; in [2], 112 µM; in test [9], 636 µM. This compound came in with an inhibition constant (Ki) in [3] of 255 µM.
Consider `O=P(O)(O)C(F)(F)c1cc(C(F)(F)P(=O)(O)O)c2ccccc2c1`, for which the inhibition in test [4] came out at 78%; in test [5], 81%; in [6], 66%.
In the same order, the values of `O=P(O)(O)C(F)(F)c1cccc2c(C(F)(F)P(=O)(O)O)cccc12` are 26%, 51% and 77%.
For `O=P(O)(O)C(F)(F)c1ccc2cc(C(F)(F)P(=O)(O)O)ccc2c1`, the IC50 in [1] was over 100 µM; in test [2] it was 29 µM; in [9], 354 µM. For the same compound, the inhibition came out at 62% in [4], 100% in [5] and 70% in [6].
